Columns and labels:
[1] = target: T1, M4 muscarinic receptor (Homo sapiens, UniProt P08173); assay: Functional mobilization of intracellular calcium (FLIPR), M4-CHO cells; assay type: cell-based; details: for Emax: 100% efficacy is the maximum response obtained using Carbachol as a control; for M4 Activity: M4-CHO cells, FLIPR calcium mobilization
T1 construct: expressed in transfected cells; host or cells: CHO (M4-CHO)
T1 sequence (P08173 1-479): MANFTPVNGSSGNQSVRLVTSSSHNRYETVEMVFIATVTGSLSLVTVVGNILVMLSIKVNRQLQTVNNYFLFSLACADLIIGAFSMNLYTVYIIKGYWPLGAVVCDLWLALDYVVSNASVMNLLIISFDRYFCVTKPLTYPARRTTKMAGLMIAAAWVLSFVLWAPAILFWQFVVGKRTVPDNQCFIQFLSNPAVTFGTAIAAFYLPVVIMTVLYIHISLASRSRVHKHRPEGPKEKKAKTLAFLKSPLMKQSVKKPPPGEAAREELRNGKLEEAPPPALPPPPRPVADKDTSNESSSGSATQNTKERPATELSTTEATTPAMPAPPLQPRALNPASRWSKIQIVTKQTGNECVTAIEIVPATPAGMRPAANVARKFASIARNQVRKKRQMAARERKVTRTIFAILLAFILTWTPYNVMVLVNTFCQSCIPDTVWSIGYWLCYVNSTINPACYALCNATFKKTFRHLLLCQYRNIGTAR
Experimental: (§1) Functional Mobilization of Intracellular Calcium to Determine Muscarinic Receptor Activity:
(§2) CHO cells expressing muscarinic receptors (M1 to M5) are grown as monolayers in tissue culture flasks at 37° C. in a humidified atmosphere containing 5% CO2 and passaged every 3-5 days. The growth media is Dulbecco's modified eagles medium (DMEM, Gibco Cat# 12430-054), containing 25 mM Hepes and supplemented with Fetal Bovine Serum (Hyclone, cat# SH30071.03), 0.1 mM of MEM non-essential amino acids (GIBCO, Cat# 11140-050), 1 mM MEM Sodium Pyruvate (GIBCO Cat# 11360-070) and 100 units/ml of Penicillin G and 100 μg/ml of Streptomycin (GIBCO Cat# 15140-122). The recombinant muscarinic receptor cell lines are grown under antibiotic pressure with media containing 25 μg/ml zeocin and 500 μg/ml G418 (M1-CHO), 4 μg/ml puromycin, 50 μg/ml zeocin and 2.5 μg/ml blasticidin (M2 and M4-CHO) or 50 μg/ml zeocin and 4 μg/ml puromycin (M3 and M5-CHO).
(§3) Cells are harvested at 80-90% confluence using Versene (GIBCO Cat# 15040-066), collected by centrifugation and seeded 18-24 hrs prior to running the calcium assay at a density of 5,000-10,000 cells/well in […], clear-bottomed 384-well plates (BD Biocoat, poly-D-lysine, Cat#356663). The day of the experiment, the cells are washed with a plate washer (Bioteck Instruments, ELX 405) using bath1 buffer (140-mM NaCl, 4.5-mM KCl, 2-mM CaCl2, 1-mM MgCl2, 10-mM Hepes-Na, 10-mM Glucose, pH 7.4, with NaOH) containing 1 mM Probenecid. Next, the calcium dye Fluo-3 (25 μl/well of Fluo-3 AM at 4 μM, Molecular Probes F-1241, in Bath 1 buffer containing 1 mM Probenecid) is added to the 25 μl of Bath 1 remaining in each well after the plate wash and the dye is loaded at 37° C. in the tissue culture incubator for 60-90 min. The fluorescent dye is removed using the plate washer with Bath 1 containing 1 mM Probenecid, leaving 25 μl/well of this solution after the wash. Alternatively, cells can be loaded with the calcium indicator from Molecular Devices (Calcium 3 Assay Reagents, Cat # R7181) adding 5 μl of a 5× solution dye in Bath 1 containing 1 mM Probenecid (10 ml per dye flask cat# R7182 to generate a solution 20×) to 20 μl of the same buffer. After loading for 60 min, the experiment can be run without having to remove the dye.
(§4) Compounds are prepared at a 2× fold concentration in a 96-well plate (round bottom, Costar Corning cat# 3656), by reconstituting the pre-spotted compounds in bath 1 containing 1 mM probenecid. The final concentration DMSO is 0.5%, and the amount of DMSO is normalized across the assay plate. To determine an agonist action of the compounds on muscarinic receptors, the reconstituted compounds are added (25 μl compound/well) to the cell assay plate (containing 25 μl/well) using the multi-channel robotic system of the FLIPR 3 Instrument (Molecular Devices, Sunnyvale, Calif.). To determine a functional inhibitory action of the compounds on muscarinic receptors, the reconstituted compounds are added (25 μl compound/well) to the assay plate and pre-incubated for 15 min prior to adding 25 μl of Carbachol at 3× the EC80 for each muscarinic subtype. Alternatively, the compounds can be co-applied simultaneously with the agonist. In both assay modes, the fluorescence is recorded for 60 sec (excitation wavelength is […] and emission wavelength 540 nm) using the FLIPR 3 instrument.
(§5) The potency, efficacy and selectivity of the muscarinic compounds were evaluated by screening the compound activity across the whole family (M1 to M5 cells). Compounds were also screened for activity on other proteins such as other GPCRs and ion channels to determine selectivity on M4 receptors.

[2] = target: T2, M1 muscarinic receptor (Homo sapiens, UniProt P11229); assay: Functional mobilization of intracellular calcium (FLIPR), M1-CHO cells; assay type: cell-based; details: for Emax: 100% efficacy is the maximum response obtained using Carbachol as a control; for M1 Activity: M1-CHO cells, FLIPR calcium mobilization
T2 construct: expressed in transfected cells; host or cells: CHO (M1-CHO)
T2 sequence (P11229 1-460): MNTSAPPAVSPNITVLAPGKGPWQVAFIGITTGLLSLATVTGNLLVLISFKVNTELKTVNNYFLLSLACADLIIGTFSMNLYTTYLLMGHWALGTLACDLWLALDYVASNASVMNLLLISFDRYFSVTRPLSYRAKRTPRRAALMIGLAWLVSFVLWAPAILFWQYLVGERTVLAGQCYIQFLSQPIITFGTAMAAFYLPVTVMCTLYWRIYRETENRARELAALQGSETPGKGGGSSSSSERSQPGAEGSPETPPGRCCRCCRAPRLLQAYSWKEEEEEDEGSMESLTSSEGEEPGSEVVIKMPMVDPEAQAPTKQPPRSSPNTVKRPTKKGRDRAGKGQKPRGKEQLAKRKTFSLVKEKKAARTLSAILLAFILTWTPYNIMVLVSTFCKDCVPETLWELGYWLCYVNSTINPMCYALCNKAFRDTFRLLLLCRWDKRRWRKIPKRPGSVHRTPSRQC
Experimental: as §1, §2, §3, §4, §5

| Compound | Emax [1] [%] | M4 Activity [1] | Emax [2] [%] | M1 Activity [2] |
| --- | --- | --- | --- | --- |
| CCOC(=O)N1C2CCC1CC(N1CCC3(CC1)CN(S(=O)(=O)c1ccc(C)cc1)Cc1ccccc13)C2 (stereo not drawn) [compound 18] | 25 to 100 | +++ (activity was measured to be less than 1.0 μM) | 25 to 100 | +++ (activity was measured to be less than 1.0 μM) |
| CCCOC(=O)N1CC(CN2CCC3(CC2)CN(C(C)=O)Cc2ccccc23)C1 [compound 287] | < 25 | + (activity was measured to be greater than 5.0 μM) | < 25 | + (activity was measured to be greater than 5.0 μM) |
| CCOC(=O)N1CCC(CN2CCC3(CC2)CN(C(=O)NC2CCCC2)Cc2ccccc23)CC1 [compound 127] | 25 to 100 | +++ (activity was measured to be less than 1.0 μM) | 25 to 100 | +++ (activity was measured to be less than 1.0 μM) |
| O=C1c2ccccc2C2(CCN([C@@H]3C[C@@H]4CC[C@@H]3C4)CC2)N1Cc1ccccc1 [compound 227] | < 25 | + (activity was measured to be greater than 5.0 μM) | < 25 | + (activity was measured to be greater than 5.0 μM) |
| CCOC(=O)N1CCC(N2CCC3(CC2)CN(C(=O)N(C)C)Cc2ccccc23)CC1 [compound 204] | 25 to 100 | +++ (activity was measured to be less than 1.0 μM) | 25 to 100 | +++ (activity was measured to be less than 1.0 μM) |
| COCCOC(=O)N1Cc2ccccc2C2(CCN(C3CC4CCC(C3)N4C(=O)O[C@@H]3CCOC3)CC2)C1 (stereo partly drawn) [compound 138] | 25 to 100 | +++ (activity was measured to be less than 1.0 μM) | 25 to 100 | +++ (activity was measured to be less than 1.0 μM) |
| CC(=O)N1Cc2ccccc2C2(CCN(CC3CCCOC3)CC2)C1 (stereo not drawn) [compound 266] | < 25 | + (activity was measured to be greater than 5.0 μM) | < 25 | + (activity was measured to be greater than 5.0 μM) |
| CC(=O)N1Cc2ccccc2C2(CCN(C3CCCCCC3)CC2)C1 [compound 349] | 25 to 100 | +++ (activity was measured to be less than 1.0 μM) | 25 to 100 | +++ (activity was measured to be less than 1.0 μM) |
| COCCOC(=O)N1Cc2ccccc2C2(CCN(C3CC4CCC(C3)N4C(=O)OC(C)C)CC2)C1 (stereo not drawn) [compound 157] | 25 to 100 | +++ (activity was measured to be less than 1.0 μM) | 25 to 100 | +++ (activity was measured to be less than 1.0 μM) |
| CCOC(=O)N1C2CCC1CC(N1CCC3(CC1)CN(C(=O)C1CC1)Cc1ccccc13)C2.Cl (stereo not drawn) [compound 224, Ethyl 3-(2-(cyclopropanecarbonyl)-2,3-dihydro-1H-spiro[isoquinoline-4,4′-piperidine]-1′-yl)-8-azabicyclo-[3.2.1]octane-8-carboxylate hydrochloride] | 25 to 100 | +++ (activity was measured to be less than 1.0 μM) | 25 to 100 | +++ (activity was measured to be less than 1.0 μM) |
| CC(=O)N1Cc2ccccc2C2(CCN(Cc3ccccc3Cl)CC2)C1 [compound 152] | 25 to 100 | ++ (activity was measured to be from 1.0 μM to 5.0 μM) | < 25 | + (activity was measured to be greater than 5.0 μM) |
| CN(C)C(=O)N1Cc2ccccc2C2(CCN(C3CC4CCC(C3)N4C(=O)O[C@@H]3CCOC3)CC2)C1 (stereo partly drawn) [compound 48, (R)-tetrahydrofuran-3-yl 3-(2-(dimethylcarbamoyl)-2,3-dihydro-1H -spiro[isoquinoline-4,4′-piperidine]-1′-yl)-8-azabicyclo[3.2.1]octane-8-carboxylate] | 25 to 100 | +++ (activity was measured to be less than 1.0 μM) | 25 to 100 | +++ (activity was measured to be less than 1.0 μM) |
| CC(=O)N1Cc2ccccc2C2(CCN(Cc3ccncc3)CC2)C1 [compound 5] | < 25 | + (activity was measured to be greater than 5.0 μM) | < 25 | + (activity was measured to be greater than 5.0 μM) |
| COC(=O)c1cccc(CN2CCC3(CC2)CN(C(C)=O)Cc2ccccc23)c1 [compound 105] | < 25 | + (activity was measured to be greater than 5.0 μM) | < 25 | + (activity was measured to be greater than 5.0 μM) |
| CCOC(=O)N1CCC(N2CCC3(CC2)CN(C(=O)OCC(C)C)Cc2ccccc23)CC1 [compound 186] | 25 to 100 | +++ (activity was measured to be less than 1.0 μM) | 25 to 100 | +++ (activity was measured to be less than 1.0 μM) |
| CCOC(=O)N1CCC(N2CCC3(CC2)CN(C(=O)C2(C)CCCCC2)Cc2ccccc23)CC1 [compound 178] | < 25 | + (activity was measured to be greater than 5.0 μM) | 25 to 100 | +++ (activity was measured to be less than 1.0 μM) |
| CCOC(=O)N1CCC(N2CCC3(CC2)CN(C(=O)CC(F)(F)F)Cc2ccccc23)CC1 [compound 209] | 25 to 100 | +++ (activity was measured to be less than 1.0 μM) | 25 to 100 | +++ (activity was measured to be less than 1.0 μM) |
| CCOC(=O)N1CCC(N2CCC3(CC2)OC(=O)c2ccc(C)cc23)CC1 [compound 277] | 25 to 100 | +++ (activity was measured to be less than 1.0 μM) | 25 to 100 | +++ (activity was measured to be less than 1.0 μM) |

Source: US7863449B2, “Modulators of muscarinic receptors” (Vertex Pharmaceuticals Incorporated, priority 2004, dated 2011)
